Like-named read-outs stand apart in the source and are kept apart here.
Key:
Assay in all cases: CellTiter-Glo, NCI60 panel
Type in all cases: cell-based
[1] = system: SK-MEL-5; settings: Melanoma; for GI50: Homo sapiens
From the text: (§1) Identification of tumor types that are the most sensitive to the KSP inhibitors of the present invention can be accomplished using an unbiased approach that uses several cell-based assays. The assays chosen were as follows: • CellTiter-Glo®. This is an assay designed to measure ATP concentration in a cell culture, and can be correlated to cell number. Briefly CellTiter-Glo® (Promega Corporation) is a homogeneous method using the single CellTiter-Glo® reagent to detect ATP wherein ATP in the assay drives the activity of a thermostable luciferase to create a luminescent signal which can then be measured and correlated with the number of viable cells. Briefly, for adherent cells, 1,000 to 5,000 cells/well were plated in 96-well plates (100 μl/well) and let to adhere for 24 hours before being treated with drug. For non-adherent cells, 1,000 to 10,000 cells/well were plated in 96-well plates (100 μl/well) and immediately treated with drug. Drug dilutions were prepared in DMSO at 1000 times the final concentration. These dilutions were then diluted 1/100 in growth media before being added to the cells (11 μl/well) to achieve the desired final concentration. After 48 h in a 37° C. tissue culture incubator, the plates were processed for the CellTiter-Glo®assay according to the manufacturer's instructions. Protocol for a 72 hour cell proliferation assay: The 72 hour assay was performed the same way as the 48 hour assay except for the following modifications: For adherent cells, 500 to 5,000 cells/well were plated in 96-well plates (90 μl/well cell growth media) and left to adhere for 24 hours before being treated with drug. For non-adherent cells, 1,000 to 10,000 cells/well were plated in 96-well plates (90 μl/well cell growth media) and immediately treated with drug. Data values presented represent the concentration of test compound required for a 50% reduction in growth. • LDH release. The Cytotoxicity Detection KitPLUS (LDH) assay (Roche Diagnostics, Manheim, Germany) measures the amount of LDH released in the media by dying cells; LDH catalyzes the conversion of lactate into pyruvate. The enzymatic reaction is coupled to a chemical reaction that uses a tetrazolium salt to form a formazan that is red and can be detected by its absorbance at 490 nm. This assay measures the amount of cell death after drug treatment. Cells were plated at 10,000 cells/well in 96-well plates (100 μl/well). Adherent cells were let to adhere for 24 hours before being treated with drug, whereas non-adherent cells were immediately treated with drug. Drug dilutions were prepared in DMSO at 1000 times the final concentration. These dilutions were then diluted 1/100 in growth media before being added to the cells (11 μl/well) to achieve the desired final concentration. After 48 h in a 37° C. tissue culture incubator, the plates were processed for the Cytotoxicity Detection KitPLUS (LDH) assay according to the manufacturer's instructions. The media only values were subtracted from all the data points before analysis. Data values presented correspond to the compound concentration wherein LDH output is at half maximal level. • Caspase-Glo® 3/7. The Caspase-Glo® 3/7 Assay (Promega Corporation) is a homogeneous luminescent assay that measures caspase-3/7 activities. The assay provides a proluminescent caspase-3/7 DEVD-aminoluciferin substrate and a thermostable luciferase in a reagent optimized for caspase-3/7 activity, luciferase activity and cell lysis. Adding the single Caspase-Glo® 3/7 Reagent results in cell lysis, followed by caspase cleavage of the substrate. This liberates free aminoluciferin, which is consumed by the luciferase, generating a luminescent signal. The signal is proportional to caspase-3/7 activity. Data values presented correspond to the compound concentration wherein caspase 3/7 activity is at half maximal level. […]

[2] = system: HCC-2998; settings: Colon; for GI50: Homo sapiens
From the text: as §1

[3] = system: NCI/ADR-RES; settings: Ovarian; for GI50: Homo sapiens
From the text: as §1

[4] = system: OVCAR-3; settings: Ovarian; for GI50: Homo sapiens
From the text: as §1

[5] = system: NCI-H23; settings: NSCL; for GI50: Homo sapiens
From the text: as §1

[6] = system: SW-620; settings: Colon; for GI50: Homo sapiens
From the text: as §1

[7] = system: SF-539; settings: CNS; for GI50: Homo sapiens
From the text: as §1

[8] = system: CCRF-CEM; settings: Leukemia; for GI50: Homo sapiens
From the text: as §1

[9] = system: SNB-19; settings: CNS; for GI50: Homo sapiens
From the text: as §1

[10] = system: NCI-H226; settings: NSCL; for GI50: Homo sapiens
From the text: as §1

[11] = system: UACC-62; settings: Melanoma; for GI50: Homo sapiens
From the text: as §1

[12] = system: HOP-62; settings: NSCL; for GI50: Homo sapiens
From the text: as §1

[13] = system: SF-268; settings: CNS; for GI50: Homo sapiens
From the text: as §1

[14] = system: SK-MEL-2; settings: Melanoma; for GI50: Homo sapiens
From the text: as §1

[15] = system: PC-3; settings: Prostate; for GI50: Homo sapiens
From the text: as §1

[16] = system: SK-MEL-28; settings: Melanoma; for GI50: Homo sapiens
From the text: as §1

[17] = GI50 in nM, read-out: Log(GI50) (converted)

CC(C)(C)[C@H](c1nc(-c2cc(F)ccc2F)cn1Cc1ccccc1)N(CC[C@H](N)CF)C(=O)CO [Compound IIa]
0.743: Differential vs mean Log(GI50) [7]
4.18 nM: GI50 [3, 17] | GI50 ([3]; read-out: GI50)
2.77 nM: GI50 [14, 17] | GI50 ([14]; read-out: GI50)
0.236 nM: GI50 [6, 17] | GI50 ([6]; read-out: GI50)
0.215 nM: GI50 [8, 17] | GI50 ([8]; read-out: GI50)
−0.112: Differential vs mean Log(GI50) [14]
0.983: Differential vs mean Log(GI50) [5]
0.958: Differential vs mean Log(GI50) [6]
0.608 nM: GI50 [2, 17] | GI50 ([2]; read-out: GI50)
0.547: Differential vs mean Log(GI50) [2]
0.999: Differential vs mean Log(GI50) [8]
−0.669: Differential vs mean Log(GI50) [1] | Differential vs mean Log(GI50) [4] | Differential vs mean Log(GI50) [9] | Differential vs mean Log(GI50) [10] | Differential vs mean Log(GI50) [11] | Differential vs mean Log(GI50) [12] | Differential vs mean Log(GI50) [13] | Differential vs mean Log(GI50) [15] | Differential vs mean Log(GI50) [16]
0.223 nM: GI50 [5, 17] | GI50 ([5]; read-out: GI50)
−0.290: Differential vs mean Log(GI50) [3]
0.387 nM: GI50 [7, 17] | GI50 ([7]; read-out: GI50)
10 nM: GI50 [1, 17] | GI50 ([1]; read-out: GI50) | GI50 [4, 17] | GI50 ([4]; read-out: GI50) | GI50 [9, 17] | GI50 ([9]; read-out: GI50) | GI50 [10, 17] | GI50 ([10]; read-out: GI50) | GI50 [11, 17] | GI50 ([11]; read-out: GI50) | GI50 [12, 17] | GI50 ([12]; read-out: GI50) | GI50 [13, 17] | GI50 ([13]; read-out: GI50) | GI50 [15, 17] | GI50 ([15]; read-out: GI50) | GI50 [16, 17] | GI50 ([16]; read-out: GI50)

From patent US8252832B2, “Kinesin inhibitors as cancer therapeutics” (Novartis AG, priority 2007, dated 2012)
